According to patent US20150233949A1, “DETECTION AND MODULATION OF CYTOCHROME C ACETYLATION” (President and Fellows of Harvard College, priority 2008, published 2015):

Tests used:
129/Sv mice = experiment: Seizure induction by kainic acid injection in mice; format: in vivo, mouse; details: 30 mg/kg KA i.p.; WT and SIRT3 KO, female and male mice
Description: Littermate 129/Sv (6-8 weeks old) mice were used for the studies. SIRT3−/− mice were in a 129/sv background. Mice were housed under controlled temperature (25° C.) and light, and fed normal chow.
(§1) To induce seizures, both WT female (n=6) and KO female (n=5) mice and WT male (n=5) and KO male (n=6) mice were injected i.p. with 30 mg/kg KA.

[1] = tested on: hippocampus and amygdala neurons; experiment: Loss of hippocampus and amygdala neurons after kainic acid injections; format: in vivo, mouse; details: FIG. 14
Description: as §1
The effect of kainic acid injections on memory function was also investigated by examining hippocampus and amygdala neurons.

[2] = tested on: primary cerebellar granule neurons; experiment: Cell survival measurement (MTT assay) after kainic acid treatment; format: cell-based, mouse; details: T3-/- versus wild-type neurons; 50 uM kainic acid, 4 hr and 24 hrs; FIG. 9
Description: SH-SY5Y cells were cultured in Dulbecco's Modified Eagle's Medium (DMEM) supplemented with 10% Fetal Calf Serum (FCS). SH-SY5Y cells were transfected with Lipofectamine 2000 (Invitrogen, Carlsbad, Calif.). Granule neuron cultures were prepared from cerebella of postnatal day 5 mouse pups. Neurons were placed on polyornithine-coated 96-well plates and grown in Basal Medium Eagle (BME) (Sigma, St. Louis, Mo.) supplemented with 10% calf serum (Hyclone Laboratories, Logan, Utah), 25 mM KCl, 2 mM glutamine, penicillin, and streptomycin. One day after cultures were prepared they were treated with 10 μM of the antimitotic agent cytosine-D-arabinofuranoside (Sigma, St. Louis, Mo.) to prevent the proliferation of non-neuronal cells.
The resistance to kainic acid of primary granule neurons derived from WT and SIRT3 null mice was quantified as the percentage of live cells after a 4 hr and 24 hrs treatment with 50 uM Kainic acid. The quantitation of dead cells upon Kainic acid treatment was carried out using the MTT assay was performed using CellTiter 96 Nonradioactive Cell Proliferation Assay kit (Promega).

`C=C(C)[C@H]1CN[C@H](C(=O)O)[C@H]1CC(=O)O` [kainic acid] was tested. Which seizures (129/Sv mice) did it give?
Its seizures is “caused seizures in all mice”.

What about the “loss of hippocampus and amygdala neurons” value [1] of the same compound?
The value was “loss of hippocampus and amygdala neurons”.

And the cell survival [2]?
The cell survival was “reduced cell survival”.
